Assay results taken from ChEMBL document CHEMBL1772973, “Design, synthesis, radiolabeling, and in vitro and in vivo evaluation of bridgehead iodinated analogues of N-{2-[4-(2-methoxyphenyl)piperazin-1-yl]ethyl}-N-(pyridin-2-yl)cyclohexanecarboxamide (WAY-100635) as potential SPECT ligands for the 5-HT1A receptor” (J Med Chem, 2011).

Legend:
Format in all cases: ADME, organism-based
[1] = tested on: Lung; test: Biodistribution in Wistar rat lung at 7 MBq, iv after 45 mins; details: in vivo, 0.75 h
[2] = tested on: Kidney; test: Biodistribution in Wistar rat kidney at 7 MBq, iv after 15 mins; details: in vivo, 0.25 h
[3] = tested on: Striatum; test: Biodistribution in Wistar rat striatum at 7 MBq, iv after 15 mins; details: in vivo, 0.25 h
[4] = tested on: Hippocampus; test: Biodistribution in Wistar rat hippocampus at 7 MBq, iv after 45 mins; details: in vivo, 0.75 h
[5] = tested on: Striatum; test: Biodistribution in Wistar rat striatum at 7 MBq, iv after 120 mins; details: in vivo, 2 h
[6] = tested on: Heart; test: Biodistribution in Wistar rat heart at 7 MBq, iv after 15 mins; details: in vivo, 0.25 h
[7] = tested on: Thyroid gland; test: Biodistribution in Wistar rat thyroid assessed per organ at 7 MBq, iv after 15 mins; details: in vivo, 0.25 h
[8] = tested on: Rattus norvegicus; test: Biodistribution in Wistar rat frontal cortex at 7 MBq, iv after 45 mins; details: in vivo, 0.75 h
[9] = tested on: Heart; test: Biodistribution in Wistar rat heart at 7 MBq, iv after 45 mins; details: in vivo, 0.75 h
[10] = tested on: Nucleic Acid; test: Ratio of drug level in cerebellum to striatum in Wistar rat at 7 MBq, iv after 45 mins; details: in vivo, 0.75 h
[11] = tested on: Blood; test: Biodistribution in Wistar rat blood at 7 MBq, iv after 45 mins; details: in vivo, 0.75 h
[12] = tested on: Blood; test: Biodistribution in Wistar rat blood at 7 MBq, iv after 120 mins; details: in vivo, 2 h
[13] = tested on: Occipital cortex; test: Biodistribution in Wistar rat occipital cortex at 7 MBq, iv after 15 mins; details: in vivo, 0.25 h
[14] = tested on: Kidney; test: Biodistribution in Wistar rat kidney at 7 MBq, iv after 45 mins; details: in vivo, 0.75 h
[15] = tested on: Lung; test: Biodistribution in Wistar rat lung at 7 MBq, iv after 15 mins; details: in vivo, 0.25 h
[16] = tested on: Cerebellum; test: Biodistribution in Wistar rat cerebellum at 7 MBq, iv after 45 mins; details: in vivo, 0.75 h
[17] = tested on: Rattus norvegicus; test: Biodistribution in Wistar rat rest cortex at 7 MBq, iv after 15 mins; details: in vivo, 0.25 h
[18] = tested on: Cerebellum; test: Biodistribution in Wistar rat cerebellum at 7 MBq, iv after 120 mins; details: in vivo, 2 h
[19] = tested on: Striatum; test: Biodistribution in Wistar rat striatum at 7 MBq, iv after 45 mins; details: in vivo, 0.75 h
[20] = tested on: Rattus norvegicus; test: Biodistribution in Wistar rat frontal cortex at 7 MBq, iv after 15 mins; details: in vivo, 0.25 h
[21] = tested on: Rattus norvegicus; test: Biodistribution in Wistar rat frontal cortex at 7 MBq, iv after 120 mins; details: in vivo, 2 h
[22] = tested on: Kidney; test: Biodistribution in Wistar rat kidney at 7 MBq, iv after 120 mins; details: in vivo, 2 h
[23] = tested on: Occipital cortex; test: Biodistribution in Wistar rat occipital cortex at 7 MBq, iv after 120 mins; details: in vivo, 2 h
[24] = tested on: Cerebellum; test: Biodistribution in Wistar rat cerebellum at 7 MBq, iv after 15 mins; details: in vivo, 0.25 h
[25] = tested on: Occipital cortex; test: Biodistribution in Wistar rat occipital cortex at 7 MBq, iv after 45 mins; details: in vivo, 0.75 h
[26] = tested on: Nucleic Acid; test: Ratio of drug level in cerebellum to frontal cortex in Wistar rat at 7 MBq, iv after 45 mins; details: in vivo, 0.75 h
[27] = tested on: Rattus norvegicus; test: Biodistribution in Wistar rat rest cortex at 7 MBq, iv after 120 mins; details: in vivo, 2 h
[28] = tested on: Blood; test: Biodistribution in Wistar rat blood at 7 MBq, iv after 15 mins; details: in vivo, 0.25 h
[29] = tested on: Thyroid gland; test: Biodistribution in Wistar rat thyroid assessed per organ at 7 MBq, iv after 120 mins; details: in vivo, 2 h
[30] = tested on: Liver; test: Biodistribution in Wistar rat liver at 7 MBq, iv after 15 mins; details: in vivo, 0.25 h
[31] = tested on: Rattus norvegicus; test: Biodistribution in Wistar rat rest cortex at 7 MBq, iv after 45 mins; details: in vivo, 0.75 h
[32] = tested on: Nucleic Acid; test: Ratio of drug level in cerebellum to occipital cortex in Wistar rat at 7 MBq, iv after 45 mins; details: in vivo, 0.75 h
[33] = tested on: Nucleic Acid; test: Ratio of drug level in cerebellum to hippocampus in Wistar rat at 7 MBq, iv after 45 mins; details: in vivo, 0.75 h
[34] = tested on: Heart; test: Biodistribution in Wistar rat heart at 7 MBq, iv after 120 mins; details: in vivo, 2 h
[35] = tested on: Hippocampus; test: Biodistribution in Wistar rat hippocampus at 7 MBq, iv after 120 mins; details: in vivo, 2 h
[36] = tested on: Liver; test: Biodistribution in Wistar rat liver at 7 MBq, iv after 120 mins; details: in vivo, 2 h
[37] = tested on: Lung; test: Biodistribution in Wistar rat lung at 7 MBq, iv after 120 mins; details: in vivo, 2 h
[38] = tested on: Hippocampus; test: Biodistribution in Wistar rat hippocampus at 7 MBq, iv after 15 mins; details: in vivo, 0.25 h
[39] = tested on: Liver; test: Biodistribution in Wistar rat liver at 7 MBq, iv after 45 mins; details: in vivo, 0.75 h

O=C(N(CCN1CCN(c2ccccc2O)CC1)c1ccccn1)C12C3C4C1C1C2C3C41[123I] (centres undefined)
Drug uptake [1]: 0.3 % ID/g
Drug uptake [2]: 5.54 % ID/g
Drug uptake [3]: 0.23 % ID/g
Drug uptake [4]: 0.18 % ID/g
Drug uptake [5]: 0.03 % ID/g
Drug uptake [6]: 0.22 % ID/g
Drug uptake [7]: 0.28 %ID
Drug uptake [8]: 0.11 %ID
Drug uptake [9]: 0.14 % ID/g
Ratio [10]: 0.93
Drug uptake [11]: 0.2 % ID/g
Drug uptake [12]: 0.22 % ID/g
Drug uptake [13]: 0.37 % ID/g
Drug uptake [14]: 5.47 % ID/g
Drug uptake [15]: 0.59 % ID/g
Drug uptake [16]: 0.08 % ID/g
Drug uptake [17]: 0.28 % ID/g
Drug uptake [18]: 0.04 % ID/g
Drug uptake [19]: 0.07 % ID/g
Drug uptake [20]: 0.34 % ID/g
Drug uptake [21]: 0.04 % ID/g
Drug uptake [22]: 3.12 % ID/g
Drug uptake [23]: 0.04 % ID/g
Drug uptake [24]: 0.25 % ID/g
Drug uptake [25]: 0.13 % ID/g
Ratio [26]: 1.44
Drug uptake [27]: 0.03 % ID/g
Drug uptake [28]: 0.18 % ID/g
Drug uptake [29]: 0.25 %ID
Drug uptake [30]: 2.38 % ID/g
Drug uptake [31]: 0.09 % ID/g
Ratio [32]: 1.73
Ratio [33]: 2.38
Drug uptake [34]: 0.12 % ID/g
Drug uptake [35]: 0.05 % ID/g
Drug uptake [36]: 1.97 % ID/g
Drug uptake [37]: 0.19 % ID/g
Drug uptake [38]: 0.44 % ID/g
Drug uptake [39]: 2.08 % ID/g
